Data on five compounds can be found in paper doi:10.1101/2023.03.24.534094v2 (biorxiv, 2023).

Targets include AAK1 (Homo sapiens, UniProt Q2M2I8); BRAF (Homo sapiens, UniProt P15056); CK2a1 (Homo sapiens, UniProt P68400); CaMK1g (Homo sapiens, UniProt Q96NX5); CaMKK2 (Homo sapiens, UniProt Q96RR4); EphA7 (Homo sapiens, UniProt Q15375); GPRK5 (Homo sapiens, UniProt P34947); HIPK2 (Homo sapiens, UniProt Q9H2X6); JNK3 (Homo sapiens, UniProt P53779); MARK3 (Homo sapiens, UniProt P27448).
Common to all, as to experiment: biochemical
A further assay concerns the target T1, CASK (Homo sapiens, UniProt O14936).
T1 sequence (O14936 1-926): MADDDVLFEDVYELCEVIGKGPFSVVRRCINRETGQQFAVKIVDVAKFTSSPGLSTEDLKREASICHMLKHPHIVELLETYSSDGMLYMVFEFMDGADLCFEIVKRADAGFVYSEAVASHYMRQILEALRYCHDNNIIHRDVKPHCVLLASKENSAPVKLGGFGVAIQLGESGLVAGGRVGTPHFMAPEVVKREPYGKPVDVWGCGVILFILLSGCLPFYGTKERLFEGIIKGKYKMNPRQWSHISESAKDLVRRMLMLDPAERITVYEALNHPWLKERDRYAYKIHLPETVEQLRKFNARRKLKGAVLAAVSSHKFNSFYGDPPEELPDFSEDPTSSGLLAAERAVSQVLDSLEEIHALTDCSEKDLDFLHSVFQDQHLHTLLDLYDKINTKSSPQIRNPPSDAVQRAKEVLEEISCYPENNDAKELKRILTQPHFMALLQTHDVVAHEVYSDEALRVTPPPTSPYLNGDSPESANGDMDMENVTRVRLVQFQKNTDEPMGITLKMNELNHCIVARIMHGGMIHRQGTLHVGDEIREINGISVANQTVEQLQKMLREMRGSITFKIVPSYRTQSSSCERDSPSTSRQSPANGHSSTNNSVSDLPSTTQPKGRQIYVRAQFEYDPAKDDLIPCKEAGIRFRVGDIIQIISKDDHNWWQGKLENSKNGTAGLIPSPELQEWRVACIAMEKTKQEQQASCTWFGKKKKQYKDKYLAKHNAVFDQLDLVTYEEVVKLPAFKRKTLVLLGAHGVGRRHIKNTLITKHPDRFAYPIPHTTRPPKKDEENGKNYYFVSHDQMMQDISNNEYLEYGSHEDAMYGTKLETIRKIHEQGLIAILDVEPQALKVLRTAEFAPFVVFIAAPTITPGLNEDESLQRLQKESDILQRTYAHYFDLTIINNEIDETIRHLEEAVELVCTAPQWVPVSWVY

The target of a further assay is T2, TLK1 (Homo sapiens, UniProt Q9UKI8).
T2 sequence (Q9UKI8 1-766): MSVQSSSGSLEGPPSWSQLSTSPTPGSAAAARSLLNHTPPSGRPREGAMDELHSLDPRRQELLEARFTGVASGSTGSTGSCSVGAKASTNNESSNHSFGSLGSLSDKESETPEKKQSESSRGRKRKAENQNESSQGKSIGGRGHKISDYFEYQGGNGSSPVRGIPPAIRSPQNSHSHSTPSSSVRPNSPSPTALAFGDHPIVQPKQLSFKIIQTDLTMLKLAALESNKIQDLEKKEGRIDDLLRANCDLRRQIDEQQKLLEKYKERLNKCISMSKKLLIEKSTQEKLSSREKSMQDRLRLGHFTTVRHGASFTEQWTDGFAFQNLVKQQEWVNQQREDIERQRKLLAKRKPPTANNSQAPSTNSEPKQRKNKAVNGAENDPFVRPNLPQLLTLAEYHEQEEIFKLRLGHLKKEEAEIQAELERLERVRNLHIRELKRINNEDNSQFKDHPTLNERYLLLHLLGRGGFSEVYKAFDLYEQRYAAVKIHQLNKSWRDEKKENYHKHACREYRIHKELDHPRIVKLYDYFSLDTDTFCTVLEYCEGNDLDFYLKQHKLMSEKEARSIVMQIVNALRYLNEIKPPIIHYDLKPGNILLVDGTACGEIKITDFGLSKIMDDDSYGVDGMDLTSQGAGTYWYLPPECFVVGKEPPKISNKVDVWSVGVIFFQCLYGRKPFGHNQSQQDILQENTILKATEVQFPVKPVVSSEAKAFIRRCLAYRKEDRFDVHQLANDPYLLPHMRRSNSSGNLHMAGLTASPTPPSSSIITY

Read-outs that look alike come from different tables or passages of the source.

Sequence of GPRK5 (P34947 whole entry): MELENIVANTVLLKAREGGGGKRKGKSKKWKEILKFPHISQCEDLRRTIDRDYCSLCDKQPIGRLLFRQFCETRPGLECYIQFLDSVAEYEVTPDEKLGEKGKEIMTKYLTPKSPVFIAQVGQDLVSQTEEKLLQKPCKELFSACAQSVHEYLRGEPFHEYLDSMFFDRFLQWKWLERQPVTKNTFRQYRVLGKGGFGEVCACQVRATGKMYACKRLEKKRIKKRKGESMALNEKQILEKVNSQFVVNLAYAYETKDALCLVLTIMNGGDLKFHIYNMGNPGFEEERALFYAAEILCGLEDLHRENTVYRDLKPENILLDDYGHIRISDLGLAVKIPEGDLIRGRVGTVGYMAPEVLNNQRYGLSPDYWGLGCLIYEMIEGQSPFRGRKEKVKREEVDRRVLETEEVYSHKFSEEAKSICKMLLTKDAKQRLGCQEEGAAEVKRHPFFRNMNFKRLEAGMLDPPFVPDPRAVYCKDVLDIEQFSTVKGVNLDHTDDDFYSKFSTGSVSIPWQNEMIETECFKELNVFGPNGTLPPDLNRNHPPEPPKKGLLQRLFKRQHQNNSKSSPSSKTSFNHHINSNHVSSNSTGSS
Sequence of JNK3 (P53779 whole entry): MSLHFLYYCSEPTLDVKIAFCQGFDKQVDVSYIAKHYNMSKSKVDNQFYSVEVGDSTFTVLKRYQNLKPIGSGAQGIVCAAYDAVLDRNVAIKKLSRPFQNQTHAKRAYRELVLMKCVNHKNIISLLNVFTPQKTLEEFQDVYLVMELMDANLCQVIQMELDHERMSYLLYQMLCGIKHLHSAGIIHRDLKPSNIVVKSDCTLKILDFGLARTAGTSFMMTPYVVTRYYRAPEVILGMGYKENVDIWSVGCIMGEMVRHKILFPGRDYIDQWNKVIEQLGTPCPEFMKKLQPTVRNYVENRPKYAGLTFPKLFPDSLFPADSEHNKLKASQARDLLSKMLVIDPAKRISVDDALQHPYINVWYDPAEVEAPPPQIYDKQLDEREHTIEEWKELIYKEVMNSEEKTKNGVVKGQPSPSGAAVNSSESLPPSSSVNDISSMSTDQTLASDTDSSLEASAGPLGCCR
Sequence of HIPK2 (Q9H2X6 whole entry): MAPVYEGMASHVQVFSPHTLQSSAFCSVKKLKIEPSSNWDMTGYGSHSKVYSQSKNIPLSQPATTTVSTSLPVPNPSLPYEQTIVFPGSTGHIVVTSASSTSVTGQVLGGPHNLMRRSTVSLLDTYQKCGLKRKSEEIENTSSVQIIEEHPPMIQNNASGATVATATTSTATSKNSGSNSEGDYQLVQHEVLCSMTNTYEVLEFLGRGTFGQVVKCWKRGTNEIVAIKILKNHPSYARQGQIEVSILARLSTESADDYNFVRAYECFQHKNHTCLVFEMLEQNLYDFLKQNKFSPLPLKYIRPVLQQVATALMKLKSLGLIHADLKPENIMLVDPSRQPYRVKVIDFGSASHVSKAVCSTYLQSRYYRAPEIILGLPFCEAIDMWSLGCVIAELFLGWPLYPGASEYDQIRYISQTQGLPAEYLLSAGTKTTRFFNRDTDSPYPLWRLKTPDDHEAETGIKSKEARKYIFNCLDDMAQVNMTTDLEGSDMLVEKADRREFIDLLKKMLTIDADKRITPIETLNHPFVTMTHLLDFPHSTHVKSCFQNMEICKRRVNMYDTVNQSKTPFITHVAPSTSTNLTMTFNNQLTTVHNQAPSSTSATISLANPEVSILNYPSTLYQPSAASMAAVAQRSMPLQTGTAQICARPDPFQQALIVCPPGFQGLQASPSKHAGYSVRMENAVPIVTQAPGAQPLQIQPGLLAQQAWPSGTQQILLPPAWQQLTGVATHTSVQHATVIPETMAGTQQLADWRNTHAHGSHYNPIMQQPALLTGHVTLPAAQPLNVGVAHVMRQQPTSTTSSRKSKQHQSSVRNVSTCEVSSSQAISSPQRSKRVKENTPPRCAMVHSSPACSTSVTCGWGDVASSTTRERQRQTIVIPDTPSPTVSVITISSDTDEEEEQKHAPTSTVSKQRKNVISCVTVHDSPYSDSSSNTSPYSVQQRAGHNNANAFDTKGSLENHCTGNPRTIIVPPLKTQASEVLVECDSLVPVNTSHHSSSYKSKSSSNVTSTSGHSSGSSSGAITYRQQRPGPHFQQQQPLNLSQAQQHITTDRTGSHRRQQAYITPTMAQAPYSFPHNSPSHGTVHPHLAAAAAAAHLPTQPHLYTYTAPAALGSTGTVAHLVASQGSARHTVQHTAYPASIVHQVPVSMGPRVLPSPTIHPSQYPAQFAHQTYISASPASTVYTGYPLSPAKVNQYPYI
Sequence of EphA7 (Q15375 whole entry): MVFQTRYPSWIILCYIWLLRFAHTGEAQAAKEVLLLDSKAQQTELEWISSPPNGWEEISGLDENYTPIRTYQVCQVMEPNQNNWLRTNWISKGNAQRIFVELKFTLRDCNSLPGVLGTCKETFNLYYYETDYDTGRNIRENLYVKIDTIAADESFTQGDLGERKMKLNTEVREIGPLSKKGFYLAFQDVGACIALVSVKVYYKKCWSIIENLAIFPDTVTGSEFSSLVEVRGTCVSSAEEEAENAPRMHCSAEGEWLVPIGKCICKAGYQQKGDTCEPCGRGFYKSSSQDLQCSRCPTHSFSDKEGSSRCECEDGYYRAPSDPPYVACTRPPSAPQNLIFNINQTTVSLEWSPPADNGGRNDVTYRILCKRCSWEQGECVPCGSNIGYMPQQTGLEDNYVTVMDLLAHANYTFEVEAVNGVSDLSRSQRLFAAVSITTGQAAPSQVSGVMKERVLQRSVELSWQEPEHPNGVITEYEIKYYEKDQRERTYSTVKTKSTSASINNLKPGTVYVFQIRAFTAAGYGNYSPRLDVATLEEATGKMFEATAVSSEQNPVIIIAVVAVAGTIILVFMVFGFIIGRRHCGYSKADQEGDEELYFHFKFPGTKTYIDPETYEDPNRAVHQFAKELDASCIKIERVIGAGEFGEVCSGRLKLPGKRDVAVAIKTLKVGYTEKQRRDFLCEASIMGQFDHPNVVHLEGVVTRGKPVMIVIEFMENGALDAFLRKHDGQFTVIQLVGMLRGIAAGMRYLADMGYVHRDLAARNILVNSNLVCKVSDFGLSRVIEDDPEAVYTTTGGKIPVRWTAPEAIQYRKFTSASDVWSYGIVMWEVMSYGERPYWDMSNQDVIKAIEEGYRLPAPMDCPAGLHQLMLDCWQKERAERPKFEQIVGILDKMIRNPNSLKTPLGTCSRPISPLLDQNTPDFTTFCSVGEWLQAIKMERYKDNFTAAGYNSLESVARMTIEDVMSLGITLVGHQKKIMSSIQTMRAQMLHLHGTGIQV
Sequence of CaMKK2 (Q96RR4 whole entry): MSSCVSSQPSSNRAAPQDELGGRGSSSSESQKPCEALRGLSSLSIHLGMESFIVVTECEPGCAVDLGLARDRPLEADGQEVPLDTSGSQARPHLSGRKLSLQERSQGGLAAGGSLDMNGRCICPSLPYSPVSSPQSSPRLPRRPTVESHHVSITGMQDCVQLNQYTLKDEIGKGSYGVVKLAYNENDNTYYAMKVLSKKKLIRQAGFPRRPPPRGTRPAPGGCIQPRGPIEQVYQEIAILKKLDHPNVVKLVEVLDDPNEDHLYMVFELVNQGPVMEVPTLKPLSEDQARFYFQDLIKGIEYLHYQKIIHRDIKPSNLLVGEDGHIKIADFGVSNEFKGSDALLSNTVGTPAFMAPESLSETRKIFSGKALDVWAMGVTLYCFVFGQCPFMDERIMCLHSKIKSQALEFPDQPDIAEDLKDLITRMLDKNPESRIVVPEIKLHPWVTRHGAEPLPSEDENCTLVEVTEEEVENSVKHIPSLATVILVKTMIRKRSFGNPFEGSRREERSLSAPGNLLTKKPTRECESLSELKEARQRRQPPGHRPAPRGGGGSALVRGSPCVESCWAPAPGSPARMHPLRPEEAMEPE
Sequence of CK2a1 (P68400 whole entry): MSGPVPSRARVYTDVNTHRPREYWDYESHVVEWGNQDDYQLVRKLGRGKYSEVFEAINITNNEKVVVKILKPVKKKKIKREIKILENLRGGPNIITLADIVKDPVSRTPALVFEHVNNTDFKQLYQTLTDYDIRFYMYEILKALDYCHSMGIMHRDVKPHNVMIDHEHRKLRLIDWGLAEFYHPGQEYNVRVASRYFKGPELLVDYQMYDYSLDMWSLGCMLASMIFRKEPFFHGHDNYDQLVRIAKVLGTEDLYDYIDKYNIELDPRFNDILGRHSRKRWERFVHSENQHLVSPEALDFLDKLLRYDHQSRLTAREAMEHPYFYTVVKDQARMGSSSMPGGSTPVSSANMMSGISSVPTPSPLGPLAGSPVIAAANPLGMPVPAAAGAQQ
Sequence of CaMK1g (Q96NX5 whole entry): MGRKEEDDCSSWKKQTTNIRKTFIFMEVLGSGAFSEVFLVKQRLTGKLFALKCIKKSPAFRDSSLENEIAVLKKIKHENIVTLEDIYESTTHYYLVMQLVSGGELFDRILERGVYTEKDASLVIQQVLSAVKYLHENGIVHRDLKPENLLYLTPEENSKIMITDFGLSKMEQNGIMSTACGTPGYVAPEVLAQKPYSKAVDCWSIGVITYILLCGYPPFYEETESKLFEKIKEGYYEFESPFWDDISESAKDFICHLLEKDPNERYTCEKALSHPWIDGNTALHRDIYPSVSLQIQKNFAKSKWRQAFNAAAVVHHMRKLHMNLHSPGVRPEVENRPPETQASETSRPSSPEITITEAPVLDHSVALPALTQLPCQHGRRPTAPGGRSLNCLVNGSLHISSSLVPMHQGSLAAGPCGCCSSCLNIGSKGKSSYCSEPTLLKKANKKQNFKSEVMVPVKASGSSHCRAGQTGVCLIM

Regarding `CNc1ncc2cc(-c3cc(C(F)(F)F)ccc3Cl)c(=O)n(CCCCN)c2n1` [compound 9, 8-(4-Aminobutyl)-6-(2-chloro-5-(trifluoromethyl)phenyl)-2-(methylamino)pyrido[2,3-d]pyrimidin-7(8H)-one], the ΔTm at 10 µM at AAK1 (read-out: dTm 9) was 0 °C; on BRAF (read-out: dTm 9), 10.4 °C; at CASK (read-out: dTm 9) it was -0.1 °C; on CK2a1 (read-out: dTm 9), 0.1 °C; on CaMK1g (read-out: dTm 9), 0.6 °C; at CaMKK2 (read-out: dTm 9), 0.4 °C. Moreover, the ΔTm at 10 µM came to 0.6 °C at EphA7 (read-out: dTm 9); 0.3 °C on GPRK5 (read-out: dTm 9); 0.7 °C at HIPK2 (read-out: dTm 9); 1.3 °C on JNK3 (read-out: dTm 9); 0.7 °C on MARK3 (read-out: dTm 9); 0.7 °C on TLK1 (read-out: dTm 9).
As to `CNc1ncc2cc(-c3cc(Cl)ccc3Cl)c(=O)n(CCCCN)c2n1` [compound 8, 8-(4-Aminobutyl)-6-(2,5-dichlorophenyl)-2-(methylamino)pyrido[2,3-d]pyrimidin-7(8H)-one], the ΔTm at 10 µM was 0.8 °C on AAK1 (read-out: dTm 8); 10.8 °C at BRAF (read-out: dTm 8); -0.2 °C on CASK (read-out: dTm 8); 1.1 °C on CK2a1 (read-out: dTm 8); 1.1 °C on CaMK1g (read-out: dTm 8); 0.6 °C at CaMKK2 (read-out: dTm 8). Besides, the ΔTm at 10 µM at EphA7 (read-out: dTm 8) was 0.5 °C; at GPRK5 (read-out: dTm 8), 0.6 °C; at HIPK2 (read-out: dTm 8) it was 0.7 °C; at JNK3 (read-out: dTm 8), 0.8 °C; at MARK3 (read-out: dTm 8), 2.7 °C; on TLK1 (read-out: dTm 8), 1 °C.
Regarding `CNc1ncc2cc(-c3cc(Br)ccc3Br)c(=O)n(CCCCN)c2n1` [compound 11, 8-(4-Aminobutyl)-6-(2,5-dibromophenyl)-2-(methylamino)pyrido[2,3-d]pyrimidin-7(8H)-one], the ΔTm at 10 µM is 0.4 °C at AAK1 (read-out: dTm 11); 11.6 °C at BRAF (read-out: dTm 11); -0.3 °C on CASK (read-out: dTm 11); 1.1 °C on CK2a1 (read-out: dTm 11); 0.8 °C at CaMK1g (read-out: dTm 11); 0.6 °C at CaMKK2 (read-out: dTm 11). The ΔTm at 10 µM at EphA7 (read-out: dTm 11) stood at 0.6 °C; at GPRK5 (read-out: dTm 11), 0.7 °C; at HIPK2 (read-out: dTm 11) it was 0.8 °C; on JNK3 (read-out: dTm 11), 1.1 °C; on MARK3 (read-out: dTm 11), 3.6 °C; at TLK1 (read-out: dTm 11), 1 °C.
As to `CNc1ncc2cc(-c3cc(F)c(-c4cccc(C)n4)cc3F)c(=O)n(CCCCN)c2n1` [compound 12, 8-(4-Aminobutyl)-6-(2,5-difluoro-4-(6-methylpyridin-2-yl)phenyl)-2-(methylamino)pyrido[2,3-d]pyrimidin-7(8H)-one], the ΔTm at 10 µM on AAK1 (read-out: dTm 12) is 0.5 °C; at BRAF (read-out: dTm 12) it was 2.3 °C; on CASK (read-out: dTm 12), -0.2 °C; at CK2a1 (read-out: dTm 12), -0.2 °C; on CaMK1g (read-out: dTm 12), 3.4 °C; on CaMKK2 (read-out: dTm 12) it was 0 °C. Besides, the ΔTm at 10 µM on EphA7 (read-out: dTm 12) is 2.3 °C; at GPRK5 (read-out: dTm 12) it was -0.4 °C; at HIPK2 (read-out: dTm 12), 0.4 °C; on JNK3 (read-out: dTm 12) it was 0.4 °C; on MARK3 (read-out: dTm 12), 5.3 °C; at TLK1 (read-out: dTm 12), -1.5 °C.
Consider `CNc1ncc2cc(-c3cc(Cl)ccc3Br)c(=O)n(CCCCN)c2n1` [compound 10, 8-(4-Aminobutyl)-6-(2-bromo-5-chlorophenyl)-2-(methylamino)pyrido[2,3-d]pyrimidin-7(8H)-one], for which the ΔTm at 10 µM came out at 0.5 °C on AAK1 (read-out: dTm 10); 11.4 °C at BRAF (read-out: dTm 10); 0 °C on CASK (read-out: dTm 10); 1.3 °C on CK2a1 (read-out: dTm 10); 0.7 °C at CaMK1g (read-out: dTm 10); 0.7 °C on CaMKK2 (read-out: dTm 10). Also, the ΔTm at 10 µM was 0.5 °C at EphA7 (read-out: dTm 10); 0.6 °C at GPRK5 (read-out: dTm 10); 0.8 °C at HIPK2 (read-out: dTm 10); 1.3 °C on JNK3 (read-out: dTm 10); 3.7 °C at MARK3 (read-out: dTm 10); 0.5 °C on TLK1 (read-out: dTm 10).
